Reference: patent US6818648B2, “Aryloxy- and arylthiosubstituted pyrimidines and triazines and derivatives thereof” (Bristol-Myers Squibb Pharma, priority 1996, dated 2004)

Row | melting point [°C] | Compound
1 | 131 to 133 | C=C(C)c1cc(Br)c(Oc2nc(C)nc(N3CCOCC3)n2)c(OC)c1 [Example 6, 2-[2-bromo-6-methoxy-4-(1-methylethenyl)phenoxy]-4-methyl-6-(4-morpholinyl)-1,3,5-triazine]
2 | 63 to 67 | C=C(C)c1cc(Br)c(Oc2nc(C)nc(N3CCOCC3)n2)c(OC)c1 [Example 5, 2-[2-bromo-6-methoxy-4-(1-methylethenyl)phenoxy]-4-methyl-6-(4-morpholinyl)-1,3,5-triazine]
